Experimental data as given in patent US8962626B2, “Thienopyridazine compounds, their preparations, pharmaceutical compositions and uses” (Zhejiang Medicine Co., Ltd. Xinchang Pharmaceutical Factory, priority 2008, dated 2015).
pIC50: −log10 of the molar value. Like-named read-outs stand apart in the source and are kept apart here.

Key:
Human colon cancer HT-29 = test: Cytotoxicity in vitro, SRB and MTT methods, 72 h; format: cell-based; settings: HT-29 cells, read-out: Anti-cancer Activity IC50 In vitro, HT-29
Experimental: (§1) Some of the above compounds are tested in vitro and in vivo for their antitumor activities. Among these tests, the cytotoxicity is tested in vitro using SRB and MTT methods for 72 h.

[1] = tested on: Human ovarian cancer (A2780); test: Cytotoxicity in vitro, SRB and MTT methods, 72 h; format: cell-based; settings: A2780 cells, read-out: Anti-cancer Activity IC50 In vitro, A2780
Experimental: as §1

[2] = tested on: Human poorly differentiated gastric adenocarcinoma (BGC-823); test: Cytotoxicity in vitro, SRB and MTT methods, 72 h; format: cell-based; settings: BGC-823 cells, read-out: Anti-cancer Activity IC50 In vitro, BGC-823
Experimental: as §1

Mouse lung cancer (3LL) = test: Cytotoxicity in vitro, SRB and MTT methods, 72 h; format: cell-based; settings: 3LL cells, read-out: Anti-cancer Activity IC50 In vitro, 3LL
Experimental: as §1

[3] = tested on: transplanted tumor of human colon cancer HT-99; test: Efficacy on transplanted tumor of human colon cancer HT-99 on nude mice; format: in vivo; settings: compounds 60 mg/kg ip d0,1, GCT 20, ADR 4 mg/kg ip, combinations GCT or CPT-11 20 / ADR 4 ip + compound 25 mg/kg iv; for RTV (relative tumor volume) X ± SD / T/C: 17th day; for TV dn: dn = 17th day after administration
mouse S180 sarcoma = test: Growth inhibition effect on mouse S180 sarcoma; format: in vivo; settings: mouse S180, 50 mg/kg ip; for Rate of inhibition: N = 7; for Body Weight without Tumor / Ending Body Weight / Tumor Weight / Starting Body Weight: N = 7, X ± SD; for Starting Body Weight: baseline

Molecule: 2-(4-bromophenyl)-4-(3-α-thiopyranmethyl)-thieno[2,3-d]pyridazinyl-7-formamide [XXXXVI]
- pIC50 (Human colon cancer HT-29): < 4.00
- pIC50 [1]: 4.52
- pIC50 [2]: 4.95
- pIC50 (Mouse lung cancer (3LL)): < 4.00

Molecule: COc1cccc2c1C(=O)c1c(O)c3c(c(O)c1C2=O)C[C@@](O)(C(=O)CO)C[C@@H]3O[C@H]1C[C@H](N)[C@H](O)[C@H](C)O1 [ADR, Adriamycin]
- RTV (relative tumor volume) X ± SD [3]: 4.38 ± 1.38
- T/C [3]: 64%
- TV dn [3]: 667 ± 67 mm^3

Molecule: NC(=O)c1nnc(CC2CCCNC2)c2cc(-c3ccc(F)cc3)sc12 (stereo not drawn) [Compound I, 2-(4-fluorophenyl)-4-(3-piperidinemethyl)-thieno[2,3-d]pyridazinyl-7-formamide]
- pIC50 (Human colon cancer HT-29; Homo sapiens, HT-29, 72 h): 5.37
- pIC50 ([1]; Homo sapiens, A2780, 72 h): 5.19
- pIC50 ([2]; Homo sapiens, BGC-823, 72 h): 5.47
- pIC50 (Mouse lung cancer (3LL); Mus musculus, 3LL): 5.85

Molecule: NC(=O)c1nnc(CC2CCNC2)c2cc(-c3ccc(F)cc3)sc12 (stereo not drawn) [Compound XX, 2-(4-fluorophenyl)-4-(3-pyrrolidinemethyl)-thieno[2,3-d]pyridazinyl-7-formamide]
- Rate of inhibition (mouse S180 sarcoma): 37.23%
- Body Weight without Tumor (mouse S180 sarcoma): 19.33 ± 1.60 g
- Ending Body Weight (mouse S180 sarcoma): 21.19 ± 1.40 g
- Tumor Weight (mouse S180 sarcoma): 1.86 ± 0.26 g
- Starting Body Weight (mouse S180 sarcoma): 19.50 ± 0.89 g

Molecule: Nc1ccn([C@@H]2O[C@H](CO)[C@@H](O)C2(F)F)c(=O)n1 [GCT, Gemcitabine]
- RTV (relative tumor volume) X ± SD [3]: 1.64 ± 0.44
- T/C [3]: 37%
- TV dn [3]: 463 ± 74 mm^3

Molecule: NC(=O)c1nnc(CC2CCNCC2)c2cc(-c3ccc(Cl)cc3)sc12 [XI, 2-(4-chlorophenyl)-4-(4-piperidinemethyl)-thieno[2,3-d]pyridazinyl-7-formamide]
- pIC50 (Human colon cancer HT-29; Homo sapiens, HT-29, 72 h): 4.97
- pIC50 ([1]; Homo sapiens, A2780, 72 h): 4.93
- pIC50 ([2]; Homo sapiens, BGC-823, 72 h): 5.03
- pIC50 (Mouse lung cancer (3LL); Mus musculus, 3LL): 5.07

Molecule: NC(=O)c1nnc(CC2CCCNC2)c2cc(-c3ccc(Cl)cc3)sc12 (stereo not drawn) [XIII, 2-(4-chlorophenyl)-4-(R-3-piperidinemethyl)-thieno[2,3-d]pyridazinyl-7-formamide]
- pIC50 (Human colon cancer HT-29): 6.14
- pIC50 [1]: 5.93
- pIC50 ([2]; Homo sapiens, BGC-823, 72 h): 5.58
- pIC50 (Mouse lung cancer (3LL)): 5.91

Molecule: CNC(=O)c1nnc(CC2CCCNC2)c2cc(-c3ccc(Cl)cc3)sc12 (stereo not drawn) [XIV, 2-(4-chlorophenyl)-4-(3-piperidinemethyl)-thieno[2,3-d]pyridazinyl-7-N-methyl formamide]
- pIC50 (Human colon cancer HT-29; Homo sapiens, HT-29, 72 h): 4.78
- pIC50 ([1]; Homo sapiens, A2780, 72 h): 5.22
- pIC50 ([2]; Homo sapiens, BGC-823, 72 h): 4.52
- pIC50 (Mouse lung cancer (3LL); Mus musculus, 3LL): 5.07

Molecule: CN(C)C(=O)c1nnc(CC2CCCNC2)c2cc(-c3ccc(Cl)cc3)sc12 (stereo not drawn) [XV, 2-(4-chlorophenyl)-4-(3-piperidinemethyl)-thieno[2,3-d]pyridazinyl-7-N,N-dimethyl formamide]
- pIC50 ([2]; Homo sapiens, BGC-823, 72 h): 5.65

Molecule: NC(=O)c1nnc(CC2CCNC2)c2cc(-c3ccc(Cl)cc3)sc12 (stereo not drawn) [XXI, 2-(4-chlorophenyl)-4-(3-pyrrolidinemethyl)-thieno[2,3-d]pyridazinyl-7-formamide]
- pIC50 (Human colon cancer HT-29; Homo sapiens, HT-29, 72 h): 5.06

Molecule: NC(=O)c1nnc(CC2CCOC2)c2cc(-c3ccc(F)cc3)sc12 (stereo not drawn) [XXIII, 2-(4-fluorophenyl)-4-(3-tetrahydrofuranmethyl)-thieno[2,3-d]pyridazinyl-7-formamide]
- pIC50 (Human colon cancer HT-29; Homo sapiens, HT-29, 72 h): 5.25
- pIC50 ([1]; Homo sapiens, A2780, 72 h): < 4.00
- pIC50 ([2]; Homo sapiens, BGC-823, 72 h): < 4.00
- pIC50 (Mouse lung cancer (3LL); Mus musculus, 3LL): < 4.00

Molecule: NC(=O)c1nnc(CC2CCOC2)c2cc(-c3ccc(Cl)cc3)sc12 (stereo not drawn) [XXIV, 2-(4-chlorophenyl)-4-(3-tetrahydrofuranmethyl)-thieno[2,3-d]pyridazinyl-7-formamide]
- Rate of inhibition (mouse S180 sarcoma): 45.45%
- Body Weight without Tumor (mouse S180 sarcoma): 21.56 ± 1.48 g
- Ending Body Weight (mouse S180 sarcoma): 23.18 ± 1.66 g
- Tumor Weight (mouse S180 sarcoma): 1.62 ± 0.26 g
- Starting Body Weight (mouse S180 sarcoma): 19.39 ± 0.60 g

Molecule: NC(=O)c1nnc(CC2CCSC2)c2cc(-c3ccc(F)cc3)sc12 (stereo not drawn) [XXVI, 2-(4-fluorophenyl)-4-(3-tetrahydrothiophenemethyl)-thieno[2,3-d]pyridazinyl-7-formamide]
- pIC50 (Human colon cancer HT-29; Homo sapiens, HT-29, 72 h): < 4.00
- pIC50 ([1]; Homo sapiens, A2780, 72 h): < 4.00
- pIC50 ([2]; Homo sapiens, BGC-823, 72 h): 4.61
- pIC50 (Mouse lung cancer (3LL); Mus musculus, 3LL): < 4.00

Molecule: CNC(=O)c1nnc(CC2CCSC2)c2cc(-c3ccc(Cl)cc3)sc12 (stereo not drawn) [XXXIV, 2-(4-chlorophenyl)-4-(3-tetrahydrothiophenemethyl)-thieno[2,3-d]pyridazinyl-7-N-methyl formamide]
- pIC50 (Human colon cancer HT-29; Homo sapiens, HT-29, 72 h): < 4.00
- pIC50 ([1]; Homo sapiens, A2780, 72 h): < 4.00
- pIC50 ([2]; Homo sapiens, BGC-823, 72 h): 4.13
- pIC50 (Mouse lung cancer (3LL); Mus musculus, 3LL): 4.30

Molecule: NC(=O)c1nnc(Cc2cccnc2)c2cc(-c3ccc(F)cc3)sc12 [XXXVIII, 2-(4-fluorophenyl)-4-(3-pyridinemethyl)-thieno[2,3-d]pyridazinyl-7-formamide]
- pIC50 (Human colon cancer HT-29; Homo sapiens, HT-29, 72 h): 5.88
- pIC50 ([1]; Homo sapiens, A2780, 72 h): 5.50
- pIC50 ([2]; Homo sapiens, BGC-823, 72 h): 5.09
- pIC50 (Mouse lung cancer (3LL); Mus musculus, 3LL): 5.50

Molecule: NC(=O)c1nnc(Cc2ccoc2)c2cc(-c3ccc(F)cc3)sc12 [XXXXXVIII, 2-(4-fluorophenyl)-4-(3-furanmethyl)-thieno[2,3-d]pyridazinyl-7-formamide]
- pIC50 (Human colon cancer HT-29; Homo sapiens, HT-29, 72 h): 4.66
- pIC50 ([1]; Homo sapiens, A2780, 72 h): 4.86
- pIC50 ([2]; Homo sapiens, BGC-823, 72 h): 4.79
- pIC50 (Mouse lung cancer (3LL); Mus musculus, 3LL): 4.67

Molecule: CNC(=O)c1nnc(Cc2ccoc2)c2cc(-c3ccc(Cl)cc3)sc12 [XXXXXXIX, 2-(4-chlorophenyl)-4-(3-furanmethyl)-thieno[2,3-d]pyridazinyl-7-N-methyl formamide]
- pIC50 (Human colon cancer HT-29; Homo sapiens, HT-29, 72 h): 5.02
- pIC50 ([1]; Homo sapiens, A2780, 72 h): 5.15
- pIC50 ([2]; Homo sapiens, BGC-823, 72 h): 4.77
- pIC50 (Mouse lung cancer (3LL); Mus musculus, 3LL): 5.48

Molecule: CN(C)C(=O)c1nnc(Cc2ccoc2)c2cc(-c3ccc(Cl)cc3)sc12 [XXXXXXX, 2-(4-chlorophenyl)-4-(3-furanmethyl)-thieno[2,3-d]pyridazinyl-7-N,N-dimethyl formamide]
- pIC50 (Human colon cancer HT-29; Homo sapiens, HT-29, 72 h): < 4.00
- pIC50 ([1]; Homo sapiens, A2780, 72 h): < 4.00
- pIC50 ([2]; Homo sapiens, BGC-823, 72 h): 5.26
- pIC50 (Mouse lung cancer (3LL); Mus musculus, 3LL): < 4.00
